Results as given in patent US5712251A, “Treatment method” (Roussel Uclaf, priority 1979, dated 1998).

Key:
[1] = system: prostate and seminal vesicules; assay: Peptide in association with an antiandrogen: weight of prostate and seminal vesicles of rats (Example 4); assay type: in vivo, rats of the Sprague-Dawley strain; details: 100 or 500 μg peptide s.c. daily plus 5 mg product A twice daily, 14 days
Method: The effect of the administration of D Ser (Tbu)^6 of Gly^10 LH-RH ethylamide in association with an antiandrogen was determined on groups of 9 normal rats of the Sprague-Dawley strain weighing about 250 g. The rats received for 14 days a subcutaneous administration at 9 A.M. of D Ser (Tbu)^6 of Gly^10 LH-RH ethylamide at a dose of 20, 100 or 500 μg in physiological serum and at 9 A.M. and 4 P.M. doses of 1 or 5 mg of 5,5-dimethyl-3-[4-nitro-3-trifluoromethyl-phenyl]-2,4-imidazolidinedione (product A) in solution in sesame oil containing 5% of benzyl alcohol. One group of rats received only physiological serum and one group received only product A.
The animals were killed 24 hours after the last injection and the weight of the prostate and seminal vesicules of the rats were determined.

ovarian steroidogenosis = assay: Inhibitory activity on ovarian steroidogenesis in women (Example 3); assay type: in vivo
Method: The study was conducted for 6 consecutive cycles consisting of 2 pretreatment cycles, 2 treatment cycles and 2 post-treatment cycles. […] Daily blood samples were taken between 4 and 6 P.M. to measure seric levels of LH, FSH, progesterone and estradiol which were determined by radioimmuno-logic tests with double antibodies. The antibodies to measure LH and FSH were furnished by the National Pituitary Agency of N.I.H. of Bethesda, Md.
Estradiol and progesterone were measured with highly specific antibodies developed against 7-(O-carboxymethyl)-oxime of estradiol and 12-(O-carboxymethyl)-oxime of progesterone, respectively [3H] 17β-estradiol and ^125 I-progesterone-12-[O-carboxymethyl)-oxime]used as tracers. The serum was extracted with benzene and the steroids were separated with a LH-20 column before the determination. The radioimmunological results were exploited by the program derived from model II of Rodbard and Lewald as in Example 1 and the statistical significance was measured by the multiple level test of Ducan-Kramer of Example 1. The results are shown in the graphs of sheets 3 to 5 of the Figures.

[2] = system: testicular steroidogensis; assay: Inhibitory activity against testicular steroidogenesis in men in good health, single intranasal dose (Example 1); assay type: in vivo; details: for level of testosterone/steroids on the fourth day after administration: single intranasal dose of 500 μg, fourth day (until 6th day)
Method: The inhibitory activity of D Ser (Tbu)^6 or Gly^10 LH-RH ethylamide (described in German application Ser. No. 2,438,350) against testicular steroidogensis in men in good health was determined on men in good health aged 30 to 40 years. The said product was administered intranasally at a dose of 500 μg in a few drops of distilled water at 8 A.M. on the third day of the test. For 2 days prior to the treatment and for 6 days after the treatment, samples of blood were taken daily at 8 A.M., 3 P.M. and 10 P.M. On the day of administration of the LH-RH agonist, blood samples were taken at 11 A.M. and 6 P.M.
The seric concentrations of LH and FSH were measured by radioimmuno-logic dosages with double antibodies and the antibodies for measuring LH and FSH were furnished by the National Pituitary Agency of N.I.H. in Bethesda, Md. The seric concentrations of steroids was measured by radioimmuno-logic dosages in which one ml of serum was extracted with ether and the steroids were separated on a LH-20 column before measuring with radioimmuno-logic dosages. The radioimmuno-logic dosage results were determined by a program derived from model II of Rodbard et al [Second Karolinska Symposium on Research Methods in Reproductive Endocrinology, Diezfalusky Editer, Copenhague (1970), p. 79-103]. The statistical significance was determined by the "multiple level test" of Duncan-Kramer [Kramer, Biometrics, Vol 12 (1956), p. 307]. The results are shown in the graphs on sheet 1 of the Figures filed herewith.

[3] = 3rd day following peptide administration, intranasal 500 μg

CCNC(=O)[C@@H]1CCCN1C(=O)[C@H](CCCNC(=N)N)NC(=O)[C@H](CC(C)C)NC(=O)[C@@H](COC(C)(C)C)NC(=O)[C@H](Cc1ccc(O)cc1)NC(=O)[C@H](CO)NC(=O)[C@H](Cc1c[nH]c2ccccc12)NC(=O)[C@H](Cc1c[nH]cn1)NC(=O)[C@@H]1CCC(=O)N1 [D Ser (Tbu)^6 of Gly^10 LH-RH ethylamide]
weight of the prostate [1]: Similar, but a little less marked
weight of the seminal vesicules [1]: approached the weight of the seminal vesicules of castrated rats
progesterone level in cycles of post-treatment, pretreatment cycles as base of 100% (ovarian steroidogenosis; 12 cycles, 6 women): 99%
progesterone level in cycles of treatment, pretreatment cycles as base of 100% (ovarian steroidogenosis; 12 cycles, 6 women): 46%
level of progesterone reduced as compared to the controls (ovarian steroidogenosis; review of 12 cycles (sheet 5)): 46%
level of seric progesterone in the 2 cycles of post-treatment (ovarian steroidogenosis; sheet 4): return to normal
reduction of seric level of progesterone as compared to controls, first treatment cycle (ovarian steroidogenosis; typical subject (sheet 3), 500 μg intranasal at 8 A.M. and 5 P.M. on one day between 4th and 9th day after LH peak): 13%
reduction of seric level of progesterone as compared to controls, second treatment cycle (ovarian steroidogenosis; typical subject (sheet 3), same regimen): 34%
concentration of 17-OH-progesterone relative to initial control values [2, 3]: 40%
concentration of testosterone relative to initial control values [2, 3]: 50%
FSH plasmatic level ([2]; intranasal 500 μg, men): increase
LH plasmatic level ([2]; intranasal 500 μg, men): increase
level of testosterone/steroids on the fourth day after administration ([2]; listed as D Ser (Tbu)^6 or Gly^10 LH-RH ethylamide): returned to normal
level of testosterone/steroids on the fourth day after administration ([2]; listed as peptide): return to normal levels
